For one assay, the system named is HL60. Put plainly: Cell growth inhibition in HL60. The assay is classed as cell-based. Particulars: read-out: Cell Growth Inhibition (IC50) HL60.
For another assay, the target named is T1, CBP (Homo sapiens, UniProt Q92793).
T1 construct: endogenous in cells; host or cells: 22Rv1 (ATCC CRL-2505) human prostate cancer cells
Put plainly: CBP degradation in 22Rv1 cells (5 h). Particulars: 22Rv1 cells, 5 h; for Dmax: 22Rv1, 5 h, read-out: CBP Degradation (22Rv1, 5 h) DCmax. The assay is classed as cell-based. The source says: Biological Assays. […] Cells with 3-8 passages after purchase were used in experiments.

Another assay relates to 22Rv1 cells. In words: Cell growth inhibition assay (CellTiter-Glo) in 22Rv1. The assay is classed as cell-based, human. Particulars: 22Rv1 cells, 96 h incubation, read-out: Cell Growth Inhibition (IC50) 22Rv1. The procedure:
Biological Assays. CBP/p300 degradation activity and cell growth inhibition were evaluated in the human prostate cancer cell line 22Rv1 (ATCC© CRL-2505™) purchased from the American Type Culture Collection (ATCC), Manassas, VA, and maintained and cultured in Dulbecco's Modified Eagle's medium (DMEM) containing 10% fetal bovine serum, 1 unit/ml of penicillin and 1 μg/ml of streptomycin. Cells with 3-8 passages after purchase were used in experiments.
Cell Growth Inhibition Assay Protocol. 22RV1 cells were seeded at a concentration of 4000 cells/well in 100 μl culture medium and 2 μl of test compound (final concentration start from 10 μM and 3 times dilution) into 96 well microplates (Corning 3903). The cell cultures were incubated for 96 h at +37° C. and 5% CO2. The plate and its contents were equilibrated to room temperature for approximately 30 minutes. 100 μl of CellTiter-Glo® 2.0 Reagent equal to the volume of cell culture medium present was added in each well. The contents were mixed for 2 minutes on an orbital shaker. The plate was allowed to incubate at room temperature for 10 minutes. The luminescence was recorded. The data was analyzed by Prism GraphPad 8.

Setting [1] is: Homo sapiens, HL-60, HL60 cells.

Where two headings read alike, the source gives them in different places.

T1 sequence (Q92793 whole entry): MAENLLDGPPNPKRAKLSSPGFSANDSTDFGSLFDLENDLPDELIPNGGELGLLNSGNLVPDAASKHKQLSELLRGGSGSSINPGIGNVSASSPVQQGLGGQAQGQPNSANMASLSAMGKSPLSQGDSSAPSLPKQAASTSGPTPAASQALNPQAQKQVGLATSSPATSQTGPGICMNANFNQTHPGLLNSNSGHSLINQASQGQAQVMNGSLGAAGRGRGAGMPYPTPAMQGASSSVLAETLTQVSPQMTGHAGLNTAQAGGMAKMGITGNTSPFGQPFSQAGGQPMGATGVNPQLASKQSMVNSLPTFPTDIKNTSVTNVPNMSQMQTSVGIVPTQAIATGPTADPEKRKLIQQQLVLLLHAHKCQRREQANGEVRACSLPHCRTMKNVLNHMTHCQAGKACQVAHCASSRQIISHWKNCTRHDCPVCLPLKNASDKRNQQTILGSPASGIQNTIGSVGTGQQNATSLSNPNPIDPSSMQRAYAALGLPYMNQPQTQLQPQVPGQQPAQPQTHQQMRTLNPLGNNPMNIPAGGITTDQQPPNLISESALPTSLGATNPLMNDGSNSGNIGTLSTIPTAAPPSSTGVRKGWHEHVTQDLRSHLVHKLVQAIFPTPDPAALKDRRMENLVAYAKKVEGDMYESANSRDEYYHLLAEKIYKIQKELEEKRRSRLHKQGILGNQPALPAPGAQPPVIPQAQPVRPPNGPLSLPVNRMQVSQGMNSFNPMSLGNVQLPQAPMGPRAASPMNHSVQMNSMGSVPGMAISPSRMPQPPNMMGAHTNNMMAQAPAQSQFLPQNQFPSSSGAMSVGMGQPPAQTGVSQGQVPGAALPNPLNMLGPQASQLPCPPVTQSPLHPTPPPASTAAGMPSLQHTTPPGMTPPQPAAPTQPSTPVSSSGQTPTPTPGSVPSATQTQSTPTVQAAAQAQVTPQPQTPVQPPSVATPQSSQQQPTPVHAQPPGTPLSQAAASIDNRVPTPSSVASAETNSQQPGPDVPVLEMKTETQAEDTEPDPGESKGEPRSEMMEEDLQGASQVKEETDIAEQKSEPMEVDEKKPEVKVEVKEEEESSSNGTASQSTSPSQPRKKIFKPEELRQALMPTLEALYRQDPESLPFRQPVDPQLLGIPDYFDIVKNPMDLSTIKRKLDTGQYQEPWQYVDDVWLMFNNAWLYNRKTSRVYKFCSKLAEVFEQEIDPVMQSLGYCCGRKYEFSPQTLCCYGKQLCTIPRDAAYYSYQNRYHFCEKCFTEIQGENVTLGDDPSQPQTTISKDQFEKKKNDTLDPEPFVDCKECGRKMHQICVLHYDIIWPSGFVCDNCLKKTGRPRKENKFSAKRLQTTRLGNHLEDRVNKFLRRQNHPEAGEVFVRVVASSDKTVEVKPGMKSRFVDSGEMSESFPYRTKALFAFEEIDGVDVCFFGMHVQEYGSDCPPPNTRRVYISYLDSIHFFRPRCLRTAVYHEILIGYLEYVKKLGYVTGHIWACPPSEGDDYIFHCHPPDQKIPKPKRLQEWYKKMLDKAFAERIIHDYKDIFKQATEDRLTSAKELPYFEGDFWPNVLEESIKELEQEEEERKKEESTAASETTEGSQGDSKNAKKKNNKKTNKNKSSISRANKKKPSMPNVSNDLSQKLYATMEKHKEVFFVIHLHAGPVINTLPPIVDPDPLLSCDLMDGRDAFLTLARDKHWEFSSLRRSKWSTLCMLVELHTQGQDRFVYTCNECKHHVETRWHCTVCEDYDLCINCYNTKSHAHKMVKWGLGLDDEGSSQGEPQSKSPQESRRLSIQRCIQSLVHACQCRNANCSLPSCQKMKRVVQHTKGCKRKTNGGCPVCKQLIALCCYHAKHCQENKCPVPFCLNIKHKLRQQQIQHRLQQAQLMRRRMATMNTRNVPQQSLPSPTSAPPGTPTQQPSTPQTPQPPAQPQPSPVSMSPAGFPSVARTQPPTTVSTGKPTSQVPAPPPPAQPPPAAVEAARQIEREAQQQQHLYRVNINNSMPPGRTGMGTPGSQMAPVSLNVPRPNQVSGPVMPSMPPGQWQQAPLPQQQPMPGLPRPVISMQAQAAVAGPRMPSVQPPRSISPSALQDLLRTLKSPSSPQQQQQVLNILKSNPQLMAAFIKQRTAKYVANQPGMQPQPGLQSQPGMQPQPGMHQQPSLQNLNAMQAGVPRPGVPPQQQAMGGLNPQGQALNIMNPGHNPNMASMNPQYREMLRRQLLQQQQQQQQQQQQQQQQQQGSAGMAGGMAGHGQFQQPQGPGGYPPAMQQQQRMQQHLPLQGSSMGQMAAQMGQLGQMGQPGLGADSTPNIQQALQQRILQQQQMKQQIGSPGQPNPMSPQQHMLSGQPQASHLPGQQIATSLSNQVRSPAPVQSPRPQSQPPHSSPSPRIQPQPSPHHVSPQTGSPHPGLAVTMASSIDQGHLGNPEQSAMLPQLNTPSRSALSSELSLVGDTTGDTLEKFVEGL

Turning to `CC(=O)N1CCc2c(c(N3CCCc4cc(-c5cnn(C)c5)c(C(F)F)cc43)nn2C2CCC(C(=O)N3CCc4cc5c(cc4C3)C(=O)N(C3CCC(=O)NC3=O)C5=O)CC2)C1` (stereo not drawn) [CP-035, 6-(4-(5-acetyl-3-(7-(difluoromethyl)-6-(1-methyl-1H-pyrazol-4-yl)-3,4-dihydroquinolin-1(2H)-yl)-4,5,6,7-tetrahydro-1H-pyrazolo[4,3-c]pyridin-1-yl)cyclohexane-1-carbonyl)-2-(2,6-dioxopiperidin-3-yl)-5,6,7,8-tetrahydro-1H-pyrrolo[3,4-g]isoquinoline-1,3(2H)-dione], the IC50 in the assay on HL60 (HL60 cells) is less than 1000 nM. Further, on CBP, the “CBP Degradation (22Rv1, 5 h) DCmax” value was “+ (>50% =)” and the DC50 is less than 100 nM. In the assay with 22Rv1 cells, the IC50 is less than 10000 nM.
In the case of `CC(=O)N1CCc2c(c(N3CCCc4cc(-c5cnn(C)c5)c(C(F)F)cc43)nn2C2CCN(CC(=O)N3CCc4cc5c(cc4C3)C(=O)N(C3CCC(=O)NC3=O)C5=O)CC2)C1` (stereo not drawn) [CP-002, 6-(2-(4-(5-acetyl-3-(7-(difluoromethyl)-6-(1-methyl-1H-pyrazol-4-yl)-3,4-dihydroquinolin-1(2H)-yl)-4,5,6,7-tetrahydro-1H-pyrazolo[4,3-c]pyridin-1-yl)piperidin-1-yl)acetyl)-2-(2,6-dioxopiperidin-3-yl)-5,6,7,8-tetrahydro-1H-pyrrolo[3,4-g]isoquinoline-1,3(2H)-dione], in the assay with HL60 (setting [1]), the IC50 was less than 1000 nM. On CBP, the Dmax is more than 90% and the DC50 was less than 10 nM. Further, the IC50 with 22Rv1 cells (Homo sapiens, 22Rv1, 96 h) was less than 10000 nM.
In the case of `CC(=O)N1CCc2c(c(N3CCCc4cc(-c5cnn(CCCN6CCc7cc8c(cc7C6)C(=O)N(C6CCC(=O)NC6=O)C8=O)c5)c(C(F)F)cc43)nn2C2CCOCC2)C1` (stereo not drawn) [CP-074, 6-(3-(4-(1-(5-acetyl-1-(tetrahydro-2H-pyran-4-yl)-4,5,6,7-tetrahydro-1H-pyrazolo[4,3-c]pyridin-3-yl)-7-(difluoromethyl)-1,2,3,4-tetrahydroquinolin-6-y)-1H-pyrazol-1-yl)propyl)-2-(2,6-dioxopiperidin-3-yl)-5,6,7,8-tetrahydro-1H-pyrrolo[3,4-g]isoquinoline-1,3(2H)-dione], the IC50 with HL60 (setting [1]) was less than 100 nM. At CBP, the Dmax was less than 50% and the DC50 is more than 1000 nM. Besides, the IC50 in the assay on 22Rv1 cells (Homo sapiens, 22Rv1, 96 h) is less than 10000 nM.
On to `CC(=O)N1CCc2c(c(N3CCCc4cc(-c5cnn(CCCCN6Cc7cc8c(cc7C6)C(=O)N(C6CCC(=O)NC6=O)C8=O)c5)c(C(F)F)cc43)nn2C2CCOCC2)C1` (stereo not drawn) [CP-068, 6-(4-(4-(1-(5-acetyl-1-(tetrahydro-2H-pyran-4-yl)-4,5,6,7-tetrahydro-1H-pyrazolo[4,3-c]pyridin-3-yl)-7-(difluoromethyl)-1,2,3,4-tetrahydroquinolin-6-yl)-1H-pyrazol-1-yl)butyl)-2-(2,6-dioxopiperidin-3-yl)-6,7-dihydropyrrolo[3,4-f]isoindole-1,3(2H,5H)-dione], for which the 50% inhibitory concentration (IC50) in the assay on HL60 (setting [1]) was less than 100 nM. For the same compound, at CBP, the Dmax is more than 90% and the DC50 was less than 10 nM. Moreover, the IC50 in the assay with 22Rv1 cells (Homo sapiens, 22Rv1, 96 h) was less than 100 nM.
For `CCC(=O)N1CCc2c(c(N3CCCc4cc(-c5cnn(C)c5)c(C(F)F)cc43)nn2C2CCN(C(=O)CN3Cc4cc5c(cc4C3)C(=O)N(C3CCC(=O)NC3=O)C5=O)CC2)C1` (stereo not drawn) [CP-055, 6-(2-(4-(3-(7-(difluoromethyl)-6-(1-methyl-1H-pyrazol-4-yl)-3,4-dihydroquinolin-1(2H)-yl)-5-propionyl-4,5,6,7-tetrahydro-1H-pyrazolo[4,3-c]pyridin-1-yl)piperidin-1-yl)-2-oxoethyl)-2-(2,6-dioxopiperidin-3-yl)-6,7-dihydropyrrolo[3,4-f]isoindole-1,3(2H,5H)-dione], the IC50 in the assay on HL60 (setting [1]) is less than 1000 nM. Further, on CBP, the Dmax is more than 70% and the DC50 is less than 10 nM. Moreover, the IC50 with 22Rv1 cells (Homo sapiens, 22Rv1, 96 h) is less than 1000 nM.
As to `CC(=O)N1CCc2c(c(N3CCCc4cc(-c5cnn(C)c5)c(C(F)F)cc43)nn2C2CCC(C(=O)N3CCc4cc5c(cc4C3)C(=O)N(C3CCC(=O)NC3=O)C5=O)CC2)C1` (stereo not drawn) [CP-036, 6-(4-(5-acetyl-3-(7-(difluoromethyl)-6-(1-methyl-1H-pyrazol-4-yl)-3,4-dihydroquinolin-1(2H)-yl)-4,5,6,7-tetrahydro-1H-pyrazolo[4,3-c]pyridin-1-yl)cyclohexane-1-carbonyl)-2-(2,6-dioxopiperidin-3-yl)-5,6,7,8-tetrahydro-1H-pyrrolo[3,4-g]isoquinoline-1,3(2H)-dione], the IC50 in the assay on HL60 (HL60 cells) was less than 100 nM. Also, on CBP, the “CBP Degradation (22Rv1, 5 h) DCmax” value is “+++ (>90% = +++)” and the DC50 was less than 10 nM. In addition, in the assay with 22Rv1 cells, the IC50 was less than 1000 nM.
Regarding `CC(=O)N1CCc2c(c(N3CCCc4cc(-c5cnn(C)c5)c(C(F)F)cc43)nn2C2CCC(CC(=O)N3Cc4cc5c(cc4C3)C(=O)N(C3CCC(=O)NC3=O)C5=O)CC2)C1` (stereo not drawn) [CP-027, 6-(2-(4-(5-acetyl-3-(7-(difluoromethyl)-6-(1-methyl-1H-pyrazol-4-yl)-3,4-dihydroquinolin-1(2H)-yl)-4,5,6,7-tetrahydro-1H-pyrazolo[4,3-c]pyridin-1-yl)cyclohexyl)acetyl)-2-(2,6-dioxopiperidin-3-yl)-6,7-dihydropyrrolo[3,4-f]isoindole-1,3(2H,5H)-dione], the IC50 in the assay on HL60 (setting [1]) was less than 1000 nM. Further, on CBP, the Dmax was less than 50% and the DC50 was more than 1000 nM. Moreover, the IC50 with 22Rv1 cells (Homo sapiens, 22Rv1, 96 h) is less than 10000 nM.
The matching figures for `CC(=O)N1CCc2c(c(N3CCCc4cc(-c5cnn(C)c5)c(C(F)F)cc43)nn2C2CCC(CC(=O)N3CCc4cc5c(cc4C3)C(=O)N(C3CCC(=O)NC3=O)C5=O)CC2)C1` (stereo not drawn) [CP-028, 6-(2-(4-(5-acetyl-3-(7-(difluoromethyl)-6-(1-methyl-1H-pyrazol-4-yl)-3,4-dihydroquinolin-1(2H)-yl)-4,5,6,7-tetrahydro-1H-pyrazolo[4,3-c]pyridin-1-yl)cyclohexyl)acetyl)-2-(2,6-dioxopiperidin-3-yl)-5,6,7,8-tetrahydro-1H-pyrrolo[3,4-g]isoquinoline-1,3(2H)-dione]: less than 100 nM, more than 50%, less than 10 nM and less than 1000 nM.
For the compound `CC(=O)N1CCc2c(c(N3CCCc4cc(-c5cnn(C)c5)c(C(F)F)cc43)nn2C2CCN(C(=O)CCCN3Cc4cc5c(cc4C3)C(=O)N(C3CCC(=O)NC3=O)C5=O)CC2)C1` (stereo not drawn) [CP-008, 6-(4-(4-(5-acetyl-3-(7-(difluoromethyl)-6-(1-methyl-1H-pyrazol-4-yl)-3,4-dihydroquinolin-1(2H)-yl)-4,5,6,7-tetrahydro-1H-pyrazolo[4,3-c]pyridin-1-yl)piperidin-1-yl)-4-oxobutyl)-2-(2,6-dioxopiperidin-3-yl)-6,7-dihydropyrrolo[3,4-f]isoindole-1,3(2H,5H)-dione], the IC50 in the assay on HL60 (setting [1]) was less than 100 nM; in the assay on 22Rv1 cells (Homo sapiens, 22Rv1, 96 h), less than 100 nM. Further, the Dmax on CBP is more than 70%. The compound further came in with a DC50 at CBP of less than 10 nM.
As for `CC(=O)N1CCc2c(c(N3CCCc4cc(-c5cnn(C)c5)c(C(F)F)cc43)nn2C2CCN(C(=O)CN3CCc4cc5c(cc4C3)C(=O)N(C3CCC(=O)NC3=O)C5=O)CC2)C1` (stereo not drawn) [CP-001, 6-(2-(4-(5-acetyl-3-(7-(difluoromethyl)-6-(1-methyl-1H-pyrazol-4-yl)-3,4-dihydroquinolin-1(2H)-yl)-4,5,6,7-tetrahydro-1H-pyrazolo[4,3-c]pyridin-1-yl)piperidin-1-yl)-2-oxoethyl)-2-(2,6-dioxopiperidin-3-yl)-5,6,7,8-tetrahydro-1H-pyrrolo[3,4-g]isoquinoline-1,3(2H)-dione], the IC50 in the assay with HL60 (setting [1]) is less than 100 nM. Also, at CBP, the Dmax is more than 90% and the DC50 was less than 10 nM. In addition, in the assay on 22Rv1 cells (Homo sapiens, 22Rv1, 96 h), the IC50 was less than 100 nM.
With `CC(=O)N1CCc2c(c(N3CCCc4cc(-c5cnn(CCCCCN6Cc7cc8c(cc7C6)C(=O)N(C6CCC(=O)NC6=O)C8=O)c5)c(C(F)F)cc43)nn2C2CCOCC2)C1` (stereo not drawn) [CP-067, 6-(5-(4-(1-(5-acetyl-1-(tetrahydro-2H-pyran-4-yl)-4,5,6,7-tetrahydro-1H-pyrazolo[4,3-c]pyridin-3-yl)-7-(difluoromethyl)-1,2,3,4-tetrahydroquinolin-6-yl)-1H-pyrazol-1-yl)pentyl)-2-(2,6-dioxopiperidin-3-yl)-6,7-dihydropyrrolo[3,4-f]isoindole-1,3(2H,5H)-dione], the half-maximal inhibitory concentration (IC50) in the assay with HL60 (setting [1]) was less than 100 nM. For the same compound, on CBP, the Dmax is more than 90% and the DC50 is less than 10 nM. Besides, the IC50 in the assay on 22Rv1 cells (Homo sapiens, 22Rv1, 96 h) is less than 100 nM.
On to `CC(=O)N1CCc2c(c(N3CCCc4cc(-c5cnn(C6CCN(C(=O)CN7CCc8cc9c(cc8C7)C(=O)N(C7CCC(=O)NC7=O)C9=O)CC6)c5)c(C(F)F)cc43)nn2C2CCOCC2)C1` (stereo not drawn) [CP-071, 6-(2-(4-(4-(1-(5-acetyl-1-(tetrahydro-2H-pyran-4-yl)-4,5,6,7-tetrahydro-1H-pyrazolo[4,3-c]pyridin-3-yl)-7-(difluoromethyl)-1,2,3,4-tetrahydroquinolin-6-yl)-1H-pyrazol-1-yl)piperidin-1-yl)-2-oxoethyl)-2-(2,6-dioxopiperidin-3-yl)-5,6,7,8-tetrahydro-1H-pyrrolo[3,4-g]isoquinoline-1,3(2H)-dione], for which the half-maximal inhibitory concentration (IC50) in the assay with HL60 (setting [1]) was less than 100 nM. Further, on CBP, the Dmax is more than 90% and the DC50 is less than 10 nM. Also, the IC50 in the assay with 22Rv1 cells (Homo sapiens, 22Rv1, 96 h) was less than 1000 nM.

Broadly, the IC50 is the concentration that gives 50% inhibition. What is called DC50 is the concentration giving 50% degradation. Read a low DC50 as a more potent degrader.

These data come from patent US20240150360A1 (THE REGENTS OF THE UNIVERSITY OF MICHIGAN, priority 2021, published 2024).
